Patent publication US12655171B2, “Compounds for activating invariant natural killer T-cells and methods of use in eliminating inflammatory senescent cells” (Deciduous Therapeutics, Inc., priority 2021, dated 2026)
Entries after “also recorded” stand apart in the source; their conditions may differ.

How the values were obtained:
human iTCR = assay: In vitro activation of human iTCR through Jurkat reporter cell line (JiNKT, GFP under NFkB promoter) with drug-loaded BWSTIM cells; assay type: cell-based; conditions: BWSTIM loaded 4 hours, co-culture with JiNKT 18 to 24 hours; FIG. 1
Method: In order to determine the human iTCR activation potential induced by the compounds described herein, a jurkat cell line (JiNKT) was transfected with the human iTCR, and GFP under the NFkB promoter (cell line licensed from the Medical University of Vienna). A BWS147 cell line (BWSTIM) was also transfected with CD80 and CD1d to act as the antigen-presenting cell.
(§1) DCD molecules or α-GalCer were both dissolved in DMSO at a 5 mg/mL stock solution. BWSTIM cells were loaded with DCD molecules or α-GalCer at varying concentrations for 4 hours at 37° C. at a concentration of 20 k cells/well in 200 μL of media in a u-bottom 96 well dish. BWSTIM cells were washed 2× with media, then incubated with JiNKT cells at a concentration of 80 k cells/well in a u-bottom 96 well dish. Cells were co-cultured for 18 to 24 hours. The percentage of cells expressing high levels of GFP was measured through flow cytometry (after gating out the mCD45+ BWSTIM cells).
(§2) A jurkat cell line (JiNKT) was transfected with the human iTCR, and GFP under the NFkB promoter. A BWS147 cell line (BWSTIM) was also transfected with CD80 and CD1d to act as the antigen-presenting cell. A mouse iNKT hybridoma cell line (DN3.2) was also used as the iNKT. […]
as §1, with “GVK” for “DCD”, “compounds” for “DCD molecules or α-GalCer at varying concentrations”, “for” for “for 18 to”, “cytometry. 1 μg/mL of molecule GVK1a, GVK1b, GVK1c, or GVK1f was incubated with BWSTIM+JiNKT, and compared to α-GalCer.” for “cytometry (after gating out the mCD45+ BWSTIM cells).”

serum IFNγ = assay: In vivo serum IFNγ (ELISA) in C57BL/6J mice; conditions: 2 μg I.P.; twenty hours post-injection; FIG. 4A
Method: (§3) In order to determine the expansion induced by the molecules described herein, molecules were injected into C57BL/6J mice. Serum IFNγ levels and the expansion of iNKT cells within splenocytes was measured 4 days post-IP injection.
(§4) Eight weeks old C57BL/6J mice were injected (I.P.) with 2 μg of α-GalCer or DCD molecules. Molecules were either dissolved in DMSO at a 5 mg/mL stock solution, or formulated into liposomes through thin-film rehydration, then extrusion through 200 nm filters. Liposome-based formulations were constructed using soy phosphatidylcholine, cholesterol, and DCD or α-GalCer in a 2:1:0.15 ratio. Twenty hours post-injection, blood was collected from the tail to measure the level of serum IFNγ using an ELISA kit from Biolegend. Four days post-injection, the mice were sacrificed and the spleenocytes were isolated. The percentage of iNKT cells within the spleens was measured using flow cytometry, selecting for live cells and mouse CD1d-α-GalCer tetramer+ cells.

iNKT cells [1] = assay: In vivo iNKT cell expansion in spleen of C57BL/6J mice (flow cytometry); conditions: 2 μg I.P.; four days post-injection; FIG. 4B
Method: as §3, §4

mouse iTCR = assay: In vitro activation of mouse iTCR, DN3.2 iNKT hybridoma with drug-loaded BWSTIM cells, IL-2 secretion; assay type: cell-based; conditions: for IL-2 secretion compared to α-GalCer: drug loaded at 0.01 μg/mL, 48 hours co-culture, FIG. 2
Method: In order to determine the mouse iTCR activation potential induced by the compounds described herein, a mouse iNKT hybridoma cell line (DN3.2) from the La Jolla Institute for Allergy and Immunology were used as the iNKT. The BWS147 cell line (BWSTIM) with CD80 and CD1d acted as the antigen-presenting cell.
(§5) DCD molecules or α-GalCer were both dissolved in DMSO at a 5 mg/mL stock solution. BWSTIM cells were loaded with DCD molecules or α-GalCer of varying concentrations for 4 hours at 37° C. at a concentration of 20 k cells/well in 200 μL of media in a u-bottom 96 well dish. BWSTIM cells were washed 2× with media, then incubated with DN3.2 cells at a concentration of 80 k cells/well in a u-bottom 96 well dish. Cells were co-cultured for 48 hours. Media was collected and IL-2 was measured using the CisBio HTRF ELISA detection kit.
as §2
as §5, with “GVK” for “DCD”, “compounds” for “DCD molecules or α-GalCer of varying concentrations”

primary human iNKT cells = assay: Cytokine secretion of primary human iNKT cells co-cultured with drug-loaded BWSTIM cells; assay type: cell-based; conditions: BWSTIM loaded with 10 μg/mL; for IFNγ secretion compared to the no-compound control: FIG. 3A; for IL6 secretion compared to the no-compound control: FIG. 3B; for TNFα secretion compared to the no-compound control: FIG. 3C
Method: In order to determine the activation profile induced by the compounds described herein, primary human iNKT cells were co-cultured with drug-loaded BWSTIM cells.
Day 0: PBMCs were isolated from human blood using the STEMCELL TECHNOLOGIES™ SepMate™ PBMC isolation system. iNKT cells were then selected using the Miltenyi NKT magnetic cell separation kit.
Day 2: DCD molecules or α-GalCer were both dissolved in DMSO at a 5 mg/mL stock solution. BWSTIM cells were fixed with mitomycin C, then loaded with 10 μg/mL of DCD molecules or α-GalCer for 4 hours at 37° C. at a concentration of 20 k cells/well in 200 μL of media in a u-bottom 96 well dish. Cells were co-cultured with 80 k 6B11+ selected primary human iNKT cells.
D4: Media was collected. Cytokines were measured using the Satorious 4Plex kit on the iQue3 cytometer.
GVK molecules or α-GalCer were both dissolved in DMSO at a 5 mg/mL stock solution. BWSTIM cells were loaded with compounds for 4 hours at 37° C. at a concentration of 20 k cells/well in 200 μL of media in a u-bottom 96 well dish. Cells were co-cultured with 100 k 6B11+ selected primary human iNKT cells. Media was collected 2 days later. Cytokines were measured using the Satorious 4Plex kit on the iQue3 cytometer.

iNKT cells [2] = assay: Diet induced obesity (HFD) mouse model: iNKT cell expansion in spleen or eWAT; assay type: in vivo, C57BL/6J mice; conditions: HFD mice, I.P. 2 g, four days post-injection
Method: (§6) Senescence is a feature of pre-adipocytes in obese individuals. To study the efficacy of the molecules described herein in decreasing senescence in fat, a diet induced obesity high fat diet (HFD) mouse model was used. 22-week-old HFD mice were injected with α-GalCer as a control and compared with the compounds of the present disclosure. The blood and spleen (or adipose tissue) were collected to measure iNKT activation and expansion, respectively. Cells in the eWAT (adipose tissue) were also collected and measured for % senescent cells. HFD mice were compared to non-HFD (normal diet) mice.
(§7) 22-week-old C57BL/6J mice on a chow or high-fat diet (HFD) were injected (I.P) with […] of α-GalCer, compound DCD-101 or compound DCD-154. Molecules were either dissolved in DMSO at a 5 mg/mL stock solution, or formulated into liposomes through thin-film rehydration, then extrusion through 200 nm filters. Liposome-based formulations were constructed using soy phosphatidylcholine, cholesterol, and DCD or α-GalCer in a 2:1:0.15 ratio. Two or twenty hours post-injection, blood was collected from the tail to measure the level of IFNγ using ELISA. Four days post-injection, mice were sacrificed to collect eWAT or spleen. Spleen was used to measure the number of iNKT cells, and eWAT was used to measure the number of iNKT cells and senescent cells using flow cytometry. iNKT cells were identified in the digested adipose tissue by gating live cells and mouse CD1d-α-GalCer tetramer+ cells. Senescent cells were measured withing the processes adipose tissue by selecting mCD45− cells, and C12FDG^HIGH cells.

IFNγ = assay: Diet induced obesity (HFD) mouse model: serum IFNγ (ELISA); assay type: in vivo, C57BL/6J mice; conditions: for secretion of IFNγ in the HFD mouse model: between two and twenty hours post-treatment
Method: as §6, §7

senescent cells in eWAT = assay: Diet induced obesity (HFD) mouse model: senescent cells (C12FDG+) in eWAT; assay type: in vivo, C57BL/6J mice; conditions: HFD mice, four days post-injection; FIG. 5E
Method: as §6, §7

## CCCCCCCCCCCCCC[C@@H](O)[C@@H](O)[C@H](COC1OC(CO)C(O)C(O)C1O)NC(=O)CCCCCCCCCCCCCCCCCCCCCCCC1COC1 (some centres unmarked) [DCD-153]
Human iTCR
  EC50 of the dose response based on percentage GFP+ cells, compared to α-GalCer: lower EC50s compared to α-GalCer
Serum IFNγ
  average serum IFNγ compared to α-GalCer: higher than the average serum IFNγ of C57BL/6J mice treated with α-GalCer
iNKT cells [1]
  average iNKT cell isolated from the spleen compared to α-GalCer: higher than mice treated with α-GalCer

## CCCCCCCCCCCCCC[C@@H](O)[C@@H](O)[C@H](COC1OC(CO)C(O)C(O)C1O)NC(=O)CCCCCCCCCCC1CC1C (some centres unmarked) [DCD-106]
Human iTCR
  EC50 of the dose response based on percentage GFP+ cells, compared to α-GalCer: lower EC50s compared to α-GalCer
Mouse iTCR
  IL-2 secretion compared to α-GalCer: greater IL-2 secretion than α-GalCer
Primary human iNKT cells
  IFNγ secretion compared to the no-compound control: significantly higher levels
  IL6 secretion compared to the no-compound control: significantly higher levels
  TNFα secretion compared to the no-compound control: significantly higher levels

## CCCCCCCCCCCCCC[C@@H](O)[C@@H](O)[C@H](COC1OC(CO)C(O)C(O)C1O)NC(=O)CCCCCCCCCCC12CC(F)(C1)C2 (some centres unmarked) [DCD-101]
Human iTCR
  EC50 of the dose response based on percentage GFP+ cells, compared to α-GalCer: lower EC50s compared to α-GalCer
Mouse iTCR
  IL-2 secretion compared to α-GalCer: greater IL-2 secretion than α-GalCer
Mouse iTCR; ranking among tested compounds, at the lowest concentrations
  IL-2 secretion: highest IL-2 secretion at the lowest concentrations
Primary human iNKT cells
  IFNγ secretion compared to the no-compound control: significantly higher levels
  IL6 secretion compared to the no-compound control: significantly higher levels
  TNFα secretion compared to the no-compound control: significantly higher levels
iNKT cells [2]; FIG. 5A
  expansion of immune (iNKT) cells in HFD mouse spleen: caused expansion of immune cells in HFD mouse spleen; also recorded: expand iNKT cells
IFNγ
  secretion of IFNγ in the HFD mouse model: induce secretion of IFNγ
IFNγ; two hours post injection, FIG. 5C
  levels of serum IFNγ in the HFD model: significantly increased levels of IFNγ
Senescent cells in eWAT
  accumulation of senescent cells (C12FDG+) in eWAT: effective in decreasing the accumulation of senescent cells in eWAT; also recorded: Senescent cell reduction in adipose tissue is observed

## CCCCCCCCCCCCCC[C@@H](O)[C@@H](O)[C@H](COC1OC(CO)C(O)C(O)C1O)NC(=O)CCCCCCCCCCC12CC(CCCCCCCCCCCCC)(C1)C2 (some centres unmarked) [DCD-154]
Serum IFNγ
  average serum IFNγ compared to α-GalCer: higher than the average serum IFNγ of C57BL/6J mice treated with α-GalCer
iNKT cells [1]
  average iNKT cell isolated from the spleen compared to α-GalCer: higher than mice treated with α-GalCer
iNKT cells [2]; percent iNKT cells of live cells, FIG. 5B
  expansion of immune (iNKT) cells in HFD mouse eWAT: caused expansion of immune cells in HFD mouse eWAT; also recorded: expand iNKT cells
IFNγ
  secretion of IFNγ in the HFD mouse model: induce secretion of IFNγ
IFNγ; twenty hours post injection, FIG. 5D
  levels of IFNγ in the HFD model: significantly increased levels of IFNγ
Senescent cells in eWAT
  accumulation of senescent cells (C12FDG+) in eWAT: effective in decreasing the accumulation of senescent cells in eWAT; also recorded: Senescent cell reduction in adipose tissue is observed

## CCCCCCCCCCCCCC[C@@H](O)[C@@H](O)[C@H](COC1OC(CO)C(O)C(O)C1O)NC(=O)CCCCCCCCCCCCCCCCCCCCCCCCC12CC(F)(C1)C2 (some centres unmarked) [DCD-156]
Human iTCR
  EC50 of the dose response based on percentage GFP+ cells, compared to α-GalCer: lower EC50s compared to α-GalCer
Serum IFNγ
  average serum IFNγ compared to α-GalCer: higher than the average serum IFNγ of C57BL/6J mice treated with α-GalCer

## CCCCCCCCCCCCCC[C@@H](O)[C@@H](O)[C@H](COC1OC(CO)C(O)C(O)C1O)NC(=O)CCCCCCCCCCCCCCCCCCCCCCCC12CC(F)(C1)C2 (some centres unmarked) [DCD-155]
Human iTCR
  EC50 of the dose response based on percentage GFP+ cells, compared to α-GalCer: lower EC50s compared to α-GalCer
Serum IFNγ
  average serum IFNγ compared to α-GalCer: higher than the average serum IFNγ of C57BL/6J mice treated with α-GalCer

## CCCCCCCCCCCCCC[C@@H](O)[C@@H](O)[C@H](COC1OC(CO)C(O)C(O)C1O)NC(=O)CCCCCCCCCCC12CCC(CC1)CC2 (some centres unmarked) [DCD-102]
Mouse iTCR
  IL-2 secretion compared to α-GalCer: greater IL-2 secretion than α-GalCer
